Source: patent publication US20250270212A1, “CHIMERIC COMPOUNDS USEFUL IN TREATING DISEASES” (Padarn Therapeutics, Inc., priority 2021, published 2025)
Where two headings read alike, the source gives them in different places.

Experiments:
[1] = system: MDA-MB-231; test: Cellular growth inhibition assay (CellTiter-Glo); type: cell-based; conditions: Homo sapiens
Experimental: Example E. Cellular Growth Inhibition Assay
HEK293 (Institute of Cytology Russian Academy of Science), MDA-MB-231 (ATCC, CRM-HTB-26), HCC1395 (ATCC, CRL-2324), HCC1937 (ATCC, CRL-2336), UWB1.289+BRCA1 (ATCC, CRL-2946) were seeded at a density of 500 cells per well in a 384-well clear bottom plate (Greiner Cat #781090) in 45 μl total volume of DMEM (PanEco, Cat #C420) or RPMI (PanEco, Cat #C330) or RPMI/MEBM (Lonza, Cat #CC-3151+CC-4136) with 10% FBS (HyClone, Cat #SV30160.03). Cells were allowed to adhere overnight at 370 C, 5% CO2. 500× compounds solutions in DMSO (Sigma Cat #D2650) were prepared into Cmpnds plate (Diamond Well Plate, Axigen, Cat #P-384-120SQ-C-S) and DMSO only control was included. 1 μl of 500× compounds (Cmpnds plate) was added to 49 μl of culture medium into Dilution plate (Diamond Well Plate, Axigen, Cat #P-384-120SQ-C-S), mixed and then 5 μl of 10× compounds solutions were transferred to cells followed by centrifugation at 100 g for 1 min. Final DMSO concentration was 0.2%. After 3 days of incubation, 10 μl of 1× compounds were added to cells. […]

[2] = target: recombinant Wee1 protein (Homo sapiens (Human), UniProt P30291); test: Wee1 enzymatic activity inhibition, ADP-Glo luminescence assay; type: biochemical; conditions: recombinant Wee1, PolyE4Y1 substrate, 1 h room temperature
Experimental: Example A. Primary Assay Used to Determine Potency of Wee1 Enzymatic Activity Inhibition
Compound activity was determined using recombinant Wee1 protein (BPS, Cat #40412) and PolyE4Y1 Substrate (Poly(Glu,Tyr) sodium salt, Sigma, Cat #P0275-25MG) in an in vitro enzymatic reaction. The enzymatic assay used to determine activity was a Luminescence assay using a Microplate Reader (BMG, ClarioStar Plus). The enzymatic reaction was carried out in assay buffer (40 mM TRIS-HCl pH 7.4-7.6, 20 mM MgCl2, 0.05 mM DTT, 0.1 mg/ml BSA, 5 mM MnCl2). The compounds were dispensed on a 384 well Diamond Well Plate (Axigen, Cat #P-384-120SQ-C-S) using the Biomek FX liquid handling system at 100× solutions of compounds in DMSO. 2×Wee1-PolyE4Y1 mix (final concentration 0.85 ng/μl of Wee1 and 0.2 μg/μl of PolyE4Y1) was prepared in 1× Assay buffer and 5.5 μl of mixture per well was added into 384w white Reaction plate with NBS (Corning, Cat #4513). 5.5 μl of PolyE4Y1 substrate w/o Wee1 in 1× buffer was used for negative control. Plates were centrifuged for 1 min at 100 g. Next step the Compounds were added to Reaction plate using Biomek station via following steps: 1 μl of 100× compounds (in DMSO) were mixed thoroughly with 49 μl of 2×10 μM ATP in Assay Buffer, then 5.5 μl of this mixture was added to Reaction plate with 5.5 μl of Wee1-PolyE4Y1 mix. Plates were centrifuged for 1 min at 100 g and incubated for 1 h at room temperature. Next 3 μL of ADP-Glo reagent (Promega, ADP-Glo™ Kinase Assay, Cat #V9102) per well was added. Plates were incubated for 30 minutes at room temperature. Then 6 μL of Kinase detection reagent (Promega, ADP-Glo™ Kinase Assay, Cat #V9102) per well was added and the Luminescence was measured using Microplate Reader. The % inhibition was then used to calculate the IC50 values. The IC50 values are shown in Table A, wherein “A” corresponds to IC50<0.01 μM, “B” corresponds to 0.01 μM≤IC50<0.1 μM, “C” 0.1 μM≤IC50<1 μM, and “D” corresponds to […].

[3] = target: recombinant PARP1 (AA662-1014) protein (Homo sapiens (Human), UniProt P09874); test: Tracer displacement fluorescence polarization assay; conditions: displacement of AlexaFluor488 tracer from NAD+-binding site, PARP1 25 nM
Experimental: Example B. Tracer Displacement Fluorescence Polarization Assays
Displacement of AlexaFlour488 marked tracer from the NAD+-binding site of recombinant PARP1 (AA662-1014) protein (OriGene, Cat #: AR09368PU-L) was measured in vitro using Fluorescence polarization assay. The reaction was carried out in assay buffer (50 mM TRIS-HCl pH 7.4-7.8, 150 mM NaCl, 10 mM MgCl2, 0.001% Triton-X). 2×PARP1 (final concentration 25 nM) was diluted in 1× Assay buffer and 10 μl of the solution per well was added into 384-well Black Non-Treated Reaction plate (Corning, Cat #4511). Plates were centrifuged for 1 min at 200 g. The compounds were prepared in a 384-well Diamond Well Plate (Axygen, Cat #P-384-120SQ-C-S) as 400× solutions in DMSO and were transferred into Reaction plate using the Biomek FX liquid handling system with intermediate dilution down to 10× working solution in assay buffer in a separate 384-well Diamond Well Plate (Axygen, Cat #P-384-120SQ-C-S) (2 μl per well). Plates were centrifuged for 1 min at 200 g and incubated for 15 min at room temperature in the dark. Then 8 μL per well of 2.5× Tracer AlexaFluor488 (final concentration 1 nM) diluted in 1× Assay buffer was added into Reaction plate. 1× Assay buffer was used to make blank samples for instrument calculations. Plates were incubated for 30 minutes at room temperature in the dark. Fluorescence polarization was measured using Microplate Reader (BMG, ClarioStar Plus). The % tracer displacement was used to calculate the IC50 values. The IC50 values are shown in Table A, wherein “A” corresponds to IC50<0.01 μM, “B” corresponds to 0.01 μM≤IC50<0.1 μM, “C” 0.1 μM≤IC50<[…], and “D” corresponds to […].

[4] = 120 h, MDA-MB-231, 5 days, read-out: MDA-MB-231 EC50 (μM) 5 days
[5] = 168 h, MDA-MB-231, 7 days, read-out: MDA-MB-231 EC50 (μM) 7 days
[6] = 240 h, MDA-MB-231, 10 days, read-out: MDA-MB-231 EC50 (μM) 10 days

Sequence of recombinant Wee1 protein (P30291 whole entry): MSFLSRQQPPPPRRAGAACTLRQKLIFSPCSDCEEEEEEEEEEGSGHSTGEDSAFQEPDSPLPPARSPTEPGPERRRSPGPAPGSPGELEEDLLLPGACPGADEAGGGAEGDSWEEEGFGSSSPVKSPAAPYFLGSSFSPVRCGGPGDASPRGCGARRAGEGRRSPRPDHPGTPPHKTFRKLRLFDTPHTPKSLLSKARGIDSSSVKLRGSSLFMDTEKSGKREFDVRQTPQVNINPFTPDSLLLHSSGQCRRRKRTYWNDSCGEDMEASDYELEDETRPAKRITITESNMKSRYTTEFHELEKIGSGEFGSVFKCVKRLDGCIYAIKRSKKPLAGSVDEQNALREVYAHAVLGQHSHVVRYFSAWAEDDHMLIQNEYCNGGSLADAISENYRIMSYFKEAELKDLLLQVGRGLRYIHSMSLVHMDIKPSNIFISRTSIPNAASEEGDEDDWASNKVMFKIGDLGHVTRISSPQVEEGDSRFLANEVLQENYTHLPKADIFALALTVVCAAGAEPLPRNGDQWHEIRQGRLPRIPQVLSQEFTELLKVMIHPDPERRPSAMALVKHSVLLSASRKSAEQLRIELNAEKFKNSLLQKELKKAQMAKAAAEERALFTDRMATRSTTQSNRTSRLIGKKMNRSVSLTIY
Sequence of recombinant PARP1 (AA662-1014) protein (P09874 662-1014): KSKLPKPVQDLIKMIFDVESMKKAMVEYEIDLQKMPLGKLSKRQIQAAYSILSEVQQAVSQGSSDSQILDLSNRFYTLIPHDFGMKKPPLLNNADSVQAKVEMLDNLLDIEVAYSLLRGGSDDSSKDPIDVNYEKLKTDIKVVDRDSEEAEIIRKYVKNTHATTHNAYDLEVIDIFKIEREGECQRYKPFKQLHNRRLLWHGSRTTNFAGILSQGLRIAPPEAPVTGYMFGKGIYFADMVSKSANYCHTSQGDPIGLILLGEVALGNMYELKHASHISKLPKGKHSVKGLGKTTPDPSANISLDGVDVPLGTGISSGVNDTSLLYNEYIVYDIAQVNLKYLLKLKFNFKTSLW

EC50 [1, 4] [µM] | EC50 [2] [nM] | EC50 [3] [nM] | EC50 [1, 5] [µM] | EC50 [1, 6] [µM] | SMILES
> 10 | 10 to 100 | < 10 | – | – | Cn1c(=O)c2cnc(Nc3ccc(N4CCN(C(=O)c5cc(Cn6c(=O)[nH]c(=O)c7c(F)cccc76)ccc5F)CC4)cc3)nc2n1-c1ccccn1 [Compound 18, 5-Fluoro-1-{4-fluoro-3-[(4-{4-[(2-methyl-3-oxo-1-pyridin-2-yl-2,3-dihydro-1H-pyrazolo[3,4-d]pyrimidin-6-yl)amino]phenyl}piperazin-1-yl)carbonyl]benzyl}quinazoline-2,4(1H,3H)-dione]
0.98 | 10 to 100 | 10 to 100 | 0.57 | 0.08 | C=CCn1c(=O)c2cnc(Nc3ccc(N4CCN(Cc5ccc(-c6[nH]c7cc(F)cc8c7c6CCNC8=O)cc5)CC4)cc3)nc2n1-c1cccc(C(C)(C)O)n1 [Compound 35, 2-[4-({4-[4-({2-Allyl-1-[6-(1-hydroxy-1-methylethyl)pyridin-2-yl]-3-oxo-2,3-dihydro-1H-pyrazolo[3,4-d]pyrimidin-6-yl}amino)phenyl]piperazin-1-yl}methyl)phenyl]-8-fluoro-1,3,4,5-tetrahydro-6H-azepino[5,4,3-cd]indol-6-one]
3.75 | 100 to 1000 | < 10 | – | – | Cn1c(=O)c2cnc(Nc3ccc(N4CCN(C(=O)c5cc(Cc6n[nH]c(=O)c7ccccc67)ccc5F)CC4)cc3)nc2n1-c1ccccn1 [Compound 3, 4-{4-Fluoro-3-[(4-{4-[(2-methyl-3-oxo-1-pyridin-2-yl-2,3-dihydro-1H-pyrazolo[3,4-d]pyrimidin-6-yl)amino]phenyl}piperazin-1-yl)carbonyl]benzyl}phthalazin-1(2H)-one]
2.77 | – | 10 to 100 | – | – | Cn1c(=O)c2cnc(Nc3ccc(N4CCCC(c5nc6cccc(C(N)=O)c6[nH]5)C4)cc3)nc2n1-c1ccccn1 (stereo not drawn) [Compound 96, 2-[1-[4-[[2-methyl-3-oxo-1-(2-pyridyl)pyrazolo[3,4-d]pyrimidin-6-yl]amino]phenyl]-3-piperidyl]-3H-benzimidazole-4-carboxamide]
> 10 | 100 to 1000 | ≥ 1 | – | – | Cn1c(=O)c2cnc(Nc3ccc(NC(=O)c4cc(Cn5c(=O)[nH]c(=O)c6c(F)cccc65)ccc4F)cc3)nc2n1-c1ccccn1 [Compound 33, 2-Fluoro-5-[(5-fluoro-2,4-dioxo-3,4-dihydroquinazolin-1(2H)-yl)methyl]-N-{4-[(2-methyl-3-oxo-1-pyridin-2-yl-2,3-dihydro-1H-pyrazolo[3,4-d]pyrimidin-6-yl)amino]phenyl}benzamide]
8.76 | 10 to 100 | < 10 | 6.28 | 3.6 | Cn1c(=O)c2cnc(Nc3ccc(N4CCN(C(=O)c5cc(Cc6n[nH]c(=O)c7ccccc67)ccc5F)CC4)cc3)nc2n1-c1ncccn1 [Compound 11, 4-{4-Fluoro-3-[(4-{4-[(2-methyl-3-oxo-1-pyrimidin-2-yl-2,3-dihydro-1H-pyrazolo[3,4-d]pyrimidin-6-yl)amino]phenyl}piperazin-1-yl)carbonyl]benzyl}phthalazin-1(2H)-one]
0.96 | – | < 10 | 0.8 | 0.18 | C=CCn1c(=O)c2cnc(Nc3ccc(N4CCN(C(=O)c5cc(Cn6c(=O)[nH]c(=O)c7c(F)cccc76)ccc5F)CC4)cc3)nc2n1-c1cccc(C(C)(C)O)n1 [Compound 16, 1-[[3-[4-[4-[[2-Allyl-1-[6-(1-hydroxy-1-methyl-ethyl)-2-pyridyl]-3-oxo-pyrazolo[3,4-d]pyrimidin-6-yl]amino]phenyl]piperazine-1-carbonyl]-4-fluoro-phenyl]methyl]-5-fluoro-quinazoline-2,4-dione]
4.89 | 10 to 100 | < 10 | 2.59 | 1.49 | C=CCn1c(=O)c2cnc(Nc3ccc(N4CCN(C(=O)c5cc(Cc6n[nH]c(=O)c7ccccc67)ccc5F)CC4)cc3)nc2n1-c1ccccn1 [Compound 10, 4-{3-[(4-{4-[(2-Allyl-3-oxo-1-pyridin-2-yl-2,3-dihydro-1H-pyrazolo[3,4-d]pyrimidin-6-yl)amino]phenyl}piperazin-1-yl)carbonyl]-4-fluorobenzyl}phthalazin-1(2H)-one]
0.69 | – | < 10 | 0.66 | 0.11 | C=CCn1c(=O)c2cnc(Nc3ccc(N4CCN(C(=O)c5cc(Cc6n[nH]c(=O)c7ccccc67)ccc5F)CC4)cc3)nc2n1-c1cccc(C(C)(C)O)c1
– | 10 to 100 | < 10 | – | – | COCCn1c(=O)c2cnc(Nc3ccc(N4CCN(C(=O)c5cc(Cc6n[nH]c(=O)c7ccccc67)ccc5F)CC4)cc3)nc2n1-c1cccc(C(C)(C)O)n1 [Compound 13, 4-(4-Fluoro-3-{[4-(4-{[1-[6-(1-hydroxy-1-methylethyl)pyridin-2-yl]-2-(2-methoxyethyl)-3-oxo-2,3-dihydro-1H-pyrazolo[3,4-d]pyrimidin-6-yl]amino}phenyl)piperazin-1-yl]carbonyl}benzyl)phthalazin-1(2H)-one]
